According to patent US20020119917A1, “ANTI-INFLAMMATORY PEPTIDES DERIVED FROM C-REACTIVE PROTEIN” (priority 1996, published 2002):
Where two headings read alike, the source gives them in different places. Starred links: 1 amine or outer side, 2 acyl side, 3 side chain; linkers in the order of their positions; H or OH if unused. Non-standard residues stand in square brackets, D forms with d. Residues, ends and D or L forms follow the SMILES beside them. No end group written: not given here. *: point of attachment. X1 = CC(C)C[C@H](NC(=O)[C@@H](N)CS*)C(=O)N[C@@H](Cc1c[nH]cn1)C(=O)N[C@@H](Cc1ccccc1)C(=O)O; NH(1-Adamantyl) = C1C2CC3CC1CC(N*)(C2)C3; MeOSuc = COC(=O)CCC(=O)*; Octanoyl = CCCCCCCC(=O)*; Cbz = O=C(OCc1ccccc1)*; CO = O=C([*:1])[*:2]; Ahx = NCCCCCC(=O)O; Sar = CNCC(=O)O

What was measured:
[1] = target: T1, human leukocyte cathepsin G (hCG) (Homo sapiens, UniProt P08311); assay: In-vitro inhibition of hCG (conversion of Suc-AAPF-NA); assay type: biochemical
T1 construct: Neutrophils (1.4 billion) were isolated from whole blood obtained from a single healthy laboratory donor; from tissue; host or cells: neutrophils from whole blood of a single healthy donor
T1 sequence (P08311 21-244 limits assumed): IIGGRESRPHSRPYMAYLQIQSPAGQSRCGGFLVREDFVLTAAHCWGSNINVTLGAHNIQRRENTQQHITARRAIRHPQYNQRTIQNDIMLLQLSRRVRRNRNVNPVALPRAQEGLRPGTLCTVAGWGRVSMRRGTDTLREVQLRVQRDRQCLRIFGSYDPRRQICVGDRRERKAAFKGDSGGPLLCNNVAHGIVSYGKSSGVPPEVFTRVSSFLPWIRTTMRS
Protocol: (§1) The enzymatic activity was assayed with MeOSuc-AAPV-NA for hLE determination and Suc-AAPF-NA for hCG determination (both in 100 mM Hepes buffer, pH 7.4, containing 0.05% of the […] detergent Brij-35). The activities of the individual enzymatic fractions were 100% free from cross-contamination. […] The fractions containing hLE and hCG were dialyzed each against 0.1% pyridinium acetate, pH 5.3, divided into 20 aliquots, lyophilized, and stored at −20° C. until use.
Similar conditions to hLE inhibition experiments ere used except the substrate: 80 μL of 1.8 mM Suc-AAPF-NA. The enzyme was issolved in 800 μL buffer, and the reaction was monitored every 6 min for 1 hour. The final volume was 240 μL containing: 5% DMSO, 1-500 μM peptide, 600 μM substrate, and 1.2 μg enzyme (about 40 picomol).
For hCG, V is determined by fitting a quadratic equation to the total kinetic data (60 min), using the least squares method and calculating V at t=0.
The inhibitory capability of several CRP-derived peptides was evaluated by inhibiting the enzymatic conversion of Suc-AAPF-NA (as described in Materials and Methods (vi) above).

[2] = target: T2, human leukocyte elastase (hLE) (Homo sapiens, UniProt P08246); assay: In-vitro inhibition of hLE (cleavage of MeOSuc-AAPV-NA); assay type: biochemical
T2 construct: Neutrophils (1.4 billion) were isolated from whole blood obtained from a single healthy laboratory donor; from tissue; host or cells: neutrophils from whole blood of a single healthy donor
T2 sequence (P08246 30-247 limits assumed): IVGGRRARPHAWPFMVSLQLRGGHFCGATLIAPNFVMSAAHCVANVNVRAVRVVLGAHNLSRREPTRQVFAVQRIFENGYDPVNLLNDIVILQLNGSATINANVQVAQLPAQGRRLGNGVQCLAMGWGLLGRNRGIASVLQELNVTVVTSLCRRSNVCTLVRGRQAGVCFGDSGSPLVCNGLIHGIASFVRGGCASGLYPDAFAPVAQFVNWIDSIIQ
Protocol: as §1
Peptides were dissolved in 100 mM Hepes buffer pH 7.4 containing 0.1% Brij-35 with 10% DMSO to yield 600 μM solutions, which were used to make further dilutions with the same buffer, and 80 μL aliquots were added in duplicates to 96-well plates. The substrate, 600 or 900 μM MeOSuc-AAPV-NA in the same buffer with 5% DMSO, was added to each well in addition to the blank wells, and the plate was placed in the plate reader equilibrated to 37° C. (Dynateck MR-6000). Lyophilized aliquots of hLE were dissolved in 1600 μL of 100 mM Hepes buffer without DMSO, and 80 μL of the enzyme solution was added to the peptides and substrate to initiate the reaction. […] The final volume was 240 μL containing: 5% DMSO, 1-200 μM of peptide, 200 μM substrate, and 0.75 μg (about 25 picomol) enzyme.
For hLE, V is determined by fitting a linear equation to the first 6 time-points (10 min) of the kinetics data using the least squares method. […] From calculating the error in the slope of the equation, the relative error for Ki was deduced:
Ki={slope*(1+[S]/Km)}^−1 because Ki=[I]*{(1+[S]/Km)*(Vo/Vi−1)}^−1.
The hLE inhibitory capability of CRP-derived peptides was evaluated by inhibiting the enzymatic cleavage of MeOSuc-AAPV-NA as described in Materials and Methods (section v).

[3] = substrate MeOSuc-AAPV-NA, 100 mM Hepes pH 7.4, 37° C., read-out: hLE Ki

| Compound | Ki [2] [µM] | hLE inhibitory capability (in words) [2] | other results |
| --- | --- | --- | --- |
| CC[C@H](C)[C@H](NC(=O)[C@H](Cc1c[nH]cn1)NC(=O)[C@@H](NC(=O)[C@@H]1CCCN1C(=O)[C@H](C)NC(=O)[C@@H](NC(=O)[C@@H](NC(=O)[C@@H](N)C(C)C)[C@@H](C)O)C(C)C)C(C)C)C(=O)N[C@@H](CSSC[C@H](N)C(=O)N[C@@H](CC(C)C)C(=O)N[C@@H](Cc1c[nH]cn1)C(=O)N[C@@H](Cc1ccccc1)C(=O)O)C(=O)O [Peptide 4, Val89-Thr-Val-Ala-Pro-Val-His-Ile-Cys97-Cys36-His-Leu-Phe39] (H-VTVAPVHIC(X1)-OH) | – | – | hCG inhibitory capability (in words) [1]: completely inactive |
| CC[C@H](C)[C@H](NC(=O)[C@H](Cc1c[nH]cn1)NC(=O)[C@@H](NC(=O)[C@@H]1CCCN1C(=O)[C@H](C)NC(=O)[C@@H](NC(=O)[C@@H](NC(=O)[C@@H](NC(=O)[C@H](CCC(=O)O)NC(=O)[C@@H]1CCCN1C(=O)[C@@H](NC(=O)[C@H](CCC(=O)O)NC(=O)[C@H](Cc1ccccc1)NC(=O)[C@H](CC(C)C)NC(=O)[C@@H](NC(=O)[C@H](CCC(=O)O)NC(=O)[C@H](CO)NC(=O)CN)[C@@H](C)CC)C(C)C)C(C)C)[C@@H](C)O)C(C)C)C(C)C)C(=O)N[C@@H](CSSC[C@H](N)C(=O)N[C@@H](CC(C)C)C(=O)N[C@@H](Cc1c[nH]cn1)C(=O)N[C@@H](Cc1ccccc1)C(=O)O)C(=O)O [Peptide 5, Gly79-Ser-Glu-Ile-Leu-Phe-Glu-Val-Pro-Glu-Val-Thr-Val-Ala-Pro-Val-His-Ile-Cys97-Cys36-His-Leu-Phe39] (H-GSEILFEVPEVTVAPVHIC(X1)-OH) | – | – | hCG inhibitory capability (in words) [1]: completely inactive |
| CC[C@H](C)[C@H](NC(=O)[C@H](Cc1c[nH]cn1)NC(=O)[C@@H](NC(=O)[C@@H]1CCCN1C(=O)[C@H](C)NC(=O)[C@@H](NC(=O)[C@@H](NC(=O)[C@@H](NC(=O)CCC(=O)OC)C(C)C)[C@@H](C)O)C(C)C)C(C)C)C(=O)O [Peptide 15, MeOSuc-Val89-Thr-Val-Ala-Pro-Val-His-Ile96] (MeOSuc-VTVAPVHI-OH) | 160 ± 30 | – | – |
| CC[C@H](C)[C@H](NC(=O)[C@H](Cc1c[nH]cn1)NC(=O)[C@@H](NC(=O)[C@@H]1CCCN1C(=O)[C@H](C)NC(=O)[C@@H](NC(=O)[C@@H](NC(=O)[C@@H](NC(=O)[C@H](Cc1ccccc1)NC(=O)CCC(=O)OC)C(C)C)[C@@H](C)O)C(C)C)C(C)C)C(=O)O [Peptide 16, MeOSuc-Phe-Val89-Thr-Val-Ala-Pro-Val-His-Ile96] (MeOSuc-FVTVAPVHI-OH) | 100 ± 10 | – | Ki [1]: 100 ± 200 µM |
| CC[C@H](C)[C@H](NC(=O)[C@H](Cc1c[nH]cn1)NC(=O)[C@@H](NC(=O)[C@@H]1CCCN1C(=O)[C@H](C)NC(=O)[C@@H](NC(=O)[C@@H](NC(=O)[C@@H](NC(=O)NC12CC3CC(CC(C3)C1)C2)C(C)C)[C@@H](C)O)C(C)C)C(C)C)C(=O)O [Peptide 17, Adamantyl-NH-CO-Val89-Thr-Val-Ala-Pro-Val-His-Ile96] ({NH(1-Adamantyl)-CO}-VTVAPVHI-OH) | 130 ± 15 | – | – |
| CCCCCCCC(=O)N[C@H](C(=O)N[C@H](C(=O)N[C@H](C(=O)N[C@@H](C)C(=O)N1CCC[C@H]1C(=O)N[C@H](C(=O)N[C@@H](Cc1c[nH]cn1)C(=O)N[C@H](C(=O)O)[C@@H](C)CC)C(C)C)C(C)C)[C@@H](C)O)C(C)C [Peptide 19, Octanoyl-Val89-Thr-Val-Ala-Pro-Val-His-Ile96] (Octanoyl-VTVAPVHI-OH) | 280 ± 25 | – | – |
| CC[C@H](C)[C@H](NC(=O)[C@H](Cc1c[nH]cn1)NC(=O)[C@@H](NC(=O)[C@@H]1CCCN1C(=O)[C@H](C)NC(=O)[C@@H](NC(=O)[C@@H](NC(=O)[C@@H](NC(=O)OCc1ccccc1)C(C)C)[C@@H](C)O)C(C)C)C(C)C)C(=O)O [Peptide 20, CBz-Val89-Thr-Val-Ala-Pro-Val-His-Ile96] (Cbz-VTVAPVHI-OH) | 165 ± 35 | – | – |
| CC[C@H](C)[C@H](NC(=O)[C@H](Cc1c[nH]cn1)NC(=O)[C@@H](NC(=O)[C@@H]1CCCN1C(=O)[C@H](C)NC(=O)[C@@H](NC(=O)[C@@H](NC(=O)[C@@H](NC(=O)CCCCCNC(C)=O)C(C)C)[C@@H](C)O)C(C)C)C(C)C)C(=O)O [Peptide 22, Acetyl-aminocaproyl-Val89-Thr-Val-Ala-Pro-Val-His-Ile96] (Ac-[Ahx]VTVAPVHI-OH) | 210 ± 30 | – | – |
| CC[C@H](C)[C@H](NC(=O)[C@H](Cc1c[nH]cn1)NC(=O)[C@@H](NC(=O)[C@H]1CCCN1C(=O)[C@H](C)NC(=O)[C@@H](NC(=O)[C@@H](NC(=O)[C@@H](N)C(C)C)[C@@H](C)O)C(C)C)C(C)C)C(=O)O [Peptide 27, Val89-Thr-Val-Ala-(D)Pro-Val-His-Ile96] (H-VTVA[dP]VHI-OH; N-terminus and C-terminus assumed) | 560 ± 170 | – | – |
| CC[C@H](C)[C@H](NC(=O)[C@@H](Cc1c[nH]cn1)NC(=O)[C@H](NC(=O)[C@H]1CCCN1C(=O)[C@H](C)NC(=O)[C@@H](NC(=O)[C@@H](NC(=O)[C@@H](N)C(C)C)[C@@H](C)O)C(C)C)C(C)C)C(=O)O [Peptide 28, Val89-Thr-Val-Ala-(D)Pro-(D)Val-(D)His-Ile96] (H-VTVA[dP][dV][dH]I-OH; N-terminus and C-terminus assumed) | 2300 ± 300 | – | – |
| CC[C@H](C)[C@H](NC(=O)[C@H](Cc1c[nH]cn1)NC(=O)[C@@H](NC(=O)CN(C)C(=O)[C@H](C)NC(=O)[C@@H](NC(=O)[C@@H](NC(=O)[C@@H](N)C(C)C)[C@@H](C)O)C(C)C)C(C)C)C(=O)O [Peptide 30, Val89-Thr-Val-Ala-Sarcosine-Val-His-Ile96] (H-VTVA[Sar]VHI-OH; N-terminus and C-terminus assumed) | – | almost completely lost | Ki [2, 3]: 1400 ± 500 µM |
| Asn160-Met-Trp-Asp-Phe-Val165 [reference compound] | – | No significant inhibition | – |
| Asp70-Ile-Gly-Tyr-Ser74 [reference compound] | – | No significant inhibition | – |
| Asp112-Gly-Lys-Pro-Arg-Val-Arg-Lys119 [reference compound] | – | No significant inhibition | – |
| Gln203-Leu-Trp-Pro206 [reference compound] | – | No significant inhibition | – |
| LEAIPMSI [Peptide 24, Leu-Glu-Ala-Ile-Pro-Met-Ser-Ile, reference compound] | – | – | Ki [2, 3]: 350 ± 70 µM |
| Phe84-Glu-Val-Pro-Glu-Val-Thr90 [reference compound] | – | No significant inhibition | – |
| Ser18-Tyr-Val-Ser-Leu-Lys23 [reference compound] | – | No significant inhibition | – |
| Thr76-Val-Gly-Gly-Ser80 [reference compound] | – | No significant inhibition | – |
| Thr200-Lys-Pro-Gln-Leu-Trp-Pro206 [reference compound] | – | No significant inhibition | – |
| VAPVHI [Peptide 26, Val91-Ala-Pro-Val-His-Ile96] | – | – | Ki [2, 3]: 1000 ± 250 µM |
| VTVAPV [Peptide 25, Val89-Thr-Val-Ala-Pro-Val94] | – | – | Ki [2, 3]: 900 ± 300 µM |
| VTVAPVHIP-NH2 [Peptide 12, Val89-Thr-Val-Ala-Pro-Val-His-Ile96-Pro-NH2] | 70 ± 5 | – | – |
| VTVAPVHIPP-NH2 [Peptide 14, Val89-Thr-Val-Ala-Pro-Val-His-Ile96-Pro-Pro-NH2] | 85 ± 10 | – | – |
| VTVAPVSI [Peptide 9, Val89-Thr-Val-Ala-Pro-Val-Ser-Ile96] | – | – | Ki [2, 3]: 200 ± 20 µM |
| Val153-Gly-Asp-Ile-Gly-Asn-Val159 [reference compound] | – | No significant inhibition | – |
| Val-Ala-Pro-Val (VAPV; printed: Val-Ala-Pro-Val) [reference compound] | – | minute | – |
